Experimental data: PubChem BioAssay (NCI)
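A five-concentration, 48-hour dose response in 96-well plates underlies each endpoint, interpolated linearly between surrounding concentrations. TGI denotes the concentration required for complete inhibition of growth.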

What was measured:
Test in all cases: NCI anticancer screen, dose series, 48 h
[1] = system: 786-0 renal
[2] = system: KM12 colon
[3] = system: NCI-H522 lung
[4] = system: NCI-H460 lung
[5] = system: RPMI-8226 leukemia
[6] = system: SW-620 colon
[7] = system: SNB-75 CNS
[8] = system: K-562 leukemia
[9] = system: ACHN renal
[10] = system: SR leukemia
[11] = system: SK-OV-3 ovarian
[12] = system: SNB-19 CNS
[13] = system: KM20L2 colon
[14] = system: CAKI-1 renal
[15] = system: HCT-15 colon
[16] = system: MALME-3M melanoma
[17] = system: XF 498 CNS
[18] = system: RXF 393 renal
[19] = system: COLO 205 colon
[20] = system: LOX IMVI melanoma
[21] = system: SK-MEL-28 melanoma
[22] = system: SNB-78 CNS
[23] = system: DMS 114 small cell lung
[24] = system: IGROV1 ovarian
[25] = system: UACC-62 melanoma
[26] = system: U251 CNS
[27] = system: HT29 colon
[28] = system: M14 melanoma
[29] = system: SK-MEL-2 melanoma
[30] = system: A549 NSCLC
[31] = system: OVCAR-5 ovarian
[32] = system: OVCAR-4 ovarian
[33] = system: A498 renal
[34] = system: NCI-H23 lung
[35] = system: HL-60(TB) leukemia
[36] = system: CCRF-CEM leukemia
[37] = system: TK-10 renal
[38] = system: DMS 273 small cell lung
[39] = system: SF-539 CNS
[40] = system: HOP-62 NSCLC
[41] = system: SF-268 CNS
[42] = system: EKVX NSCLC
[43] = system: SF-295 CNS
[44] = system: HCT-116 colon
[45] = system: HOP-92 NSCLC
[46] = system: NCI-H226 lung
[47] = system: SN12C renal
[48] = system: UACC-257 melanoma
[49] = system: UO-31 renal
[50] = system: HCC-2998 colon
[51] = system: HOP-18 NSCLC
[52] = system: OVCAR-8 ovarian
[53] = system: DLD-1 colon
[54] = system: SK-MEL-5 melanoma
[55] = system: OVCAR-3 ovarian
[56] = system: M19-MEL melanoma
[57] = system: LXFL 529 NSCLC
[58] = system: MOLT-4 leukemia

Measured: TGI

CCOC(=O)c1ccc(-n2c(SCC)nc3sc(C)c(C)c3c2=O)cc1
not listed: [56] | [57] | [58]
> 100 µM: all other assays above

O=C(CC(=O)C1CCOC1=O)C(=O)Nc1ccc(Cl)cc1Cl (centres undefined)
not listed: [10] | [51] | [58]
> 100 µM: all other assays above

Cc1ccc(O)c(C(=O)CCCC(=O)c2cc(C)ccc2O)c1
not listed: [10] | [18] | [30] | [44] | [55]
> 100 µM: all other assays above

COc1cc(/C=C2/C(=O)N(C(=O)c3ccc(Cl)cc3)N=C2C)cc(OC)c1OC
not listed: [7] | [10] | [23] | [38] | [40] | [46] | [51]
> 100 µM: all other assays above
